# In ChEMBL document CHEMBL5143695, “Benzobis(imidazole) derivatives as STAT3 signal inhibitors with antitumor activity” (Bioorg Med Chem, 2022):
# Legend:
# [1] = Cytotoxicity against HEK-Blue IL-6 cells; format: toxicity, cell-based; details: human
# [2] = Inhibition of IL-6/JAK/STAT3 signalling pathway in HEK-blue IL-6 cells incubated for 16 hrs by SEAP reporter gene based QUANTI- blue assay; format: cell-based; details: Homo sapiens, HEK-Blue IL-6, 16 h
# [3] = tested on: HepG2; assay: Antitumor activity against human HepG2 cells assessed as reduction in cell viability incubated for 72 hrs by MTT assay; format: functional, cell-based; details: HepG2, 72 h
# [4] = tested on: ECa-109 cell line; assay: Antitumor activity against human EC109 cells assessed as reduction in cell viability incubated for 72 hrs by MTT assay; format: functional, cell-based; details: ECa-109, 72 h
# [5] = tested on: HepG2; assay: Antitumor activity against human HepG2 cells xenografted in BALB/c athymic nude mouse assessed as tumor growth inhibition at 60 mg/kg, po administered daily for 24 days relative to control; format: functional; details: HepG2, 576 h, time 24 day, read-out: TGI
# [6] = Toxicity in BALB/c athymic nude mouse xenografted with human HepG2 cells assessed as decrease in body weight at 60 mg/kg, po administered daily for 24 days; format: organism-based; details: in vivo, 576 h, time 24 day
Compound,IC50 [2] [µM],IC50 [3] [µM],IC50 [1] [µM],IC50 [4] [µM],inhibition in vivo at 60 mg/kg [5] [%],Activity [6]
CCCn1c(-c2cc(C(C)(C)C)cc(C(C)(C)C)c2)nc2cc3nc(-c4cc(C(C)(C)C)cc(C(C)(C)C)c4)n(CCC)c3cc21,> 10,–,> 10,–,–,–
CCCn1c(-c2cccc(OC)c2)nc2cc3nc(-c4cccc(OC)c4)n(C4CCN(C)CC4)c3cc21,> 10,–,> 10,–,–,–
CCCn1c(-c2ccc(F)cc2)nc2cc3nc(-c4ccc(F)cc4)n(CCC)c3cc21,> 10,–,> 10,–,–,–
CC(C)Cn1c(-c2cccc(F)c2)nc2cc3nc(-c4cccc(F)c4)n(CC(C)C)c3cc21,> 10,–,> 10,–,–,–
CCCn1c(-c2ccccc2)nc2cc3nc(-c4ccccc4)n(CCN(C)C)c3cc21,> 10,–,> 10,–,–,–
CCCn1c(-c2ccc[nH]2)nc2cc3nc(-c4ccc[nH]4)n(CCC)c3cc21,> 10,–,> 10,–,–,–
CCCn1c(-c2ccc3cc[nH]c3c2)nc2cc3nc(-c4ccc5cc[nH]c5c4)n(CCC)c3cc21,> 10,–,> 10,–,–,–
CCCn1c(-c2cc(OC)cc(OC)c2)nc2cc3nc(-c4cc(OC)cc(OC)c4)n(CCC)c3cc21,> 10,–,> 10,–,–,–
CCCn1c(-c2cccc(OC)c2)nc2cc3nc(-c4cccc(OC)c4)n(CCN(C)C)c3cc21,> 10,–,> 10,–,–,–
CCCn1c(C2CCC2)nc2cc3nc(C4CCC4)n(CCC)c3cc21,> 10,–,> 10,–,–,–
CCCn1c(-c2cc(F)cc(F)c2)nc2cc3nc(-c4cc(F)cc(F)c4)n(CCC)c3cc21,> 10,–,> 10,–,–,–
CCCn1c(-c2cccc(OCC)c2)nc2cc3nc(-c4cccc(OCC)c4)n(CCC)c3cc21,> 10,–,> 10,–,–,–
CCCn1c(-c2cc(OC)c(OC)c(OC)c2)nc2cc3nc(-c4cc(OC)c(OC)c(OC)c4)n(CCC)c3cc21,> 10,–,> 10,–,–,–
Fc1cccc(-c2nc3cc4nc(-c5cccc(F)c5)n(C5CC5)c4cc3n2C2CC2)c1,> 10,–,> 10,–,–,–
CCCn1c(C2CCOCC2)nc2cc3nc(C4CCOCC4)n(CCC)c3cc21,> 10,–,> 10,–,–,–
CCCn1c(-c2ccc(C)o2)nc2cc3nc(-c4ccc(C)o4)n(CCC)c3cc21,> 10,–,> 10,–,–,–
CCCn1c(-c2cccn2C)nc2cc3nc(-c4cccn4C)n(CCC)c3cc21,> 10,–,> 10,–,–,–
CCCn1c(C2CC2)nc2cc3nc(C4CC4)n(CCC)c3cc21,> 10,–,> 10,–,–,–
CCCn1c(-c2ccc(C(F)(F)F)cc2)nc2cc3nc(-c4ccc(C(F)(F)F)cc4)n(CCC)c3cc21,> 10,–,> 10,–,–,–
CCCn1c(-c2cncnc2)nc2cc3nc(-c4cncnc4)n(CCC)c3cc21,> 10,–,> 10,–,–,–
CCCn1c(-c2ccc(C)nc2)nc2cc3nc(-c4ccc(C)nc4)n(CCC)c3cc21,> 10,–,> 10,–,–,–
CCCn1c(-c2ccc(Cl)c(C(F)(F)F)c2)nc2cc3nc(-c4ccc(Cl)c(C(F)(F)F)c4)n(CCC)c3cc21,> 10,–,> 10,–,–,–
CCCn1c(C2CCOC2)nc2cc3nc(C4CCOC4)n(CCC)c3cc21 (stereo unspecified),> 10,–,> 10,–,–,–
CCCn1c(-c2cccc(Br)c2)nc2cc3nc(-c4cccc(Br)c4)n(CCC)c3cc21,> 10,–,> 10,–,–,–
CCCn1c(-c2nccs2)nc2cc3nc(-c4nccs4)n(CCC)c3cc21,> 10,–,> 10,–,–,–
CNC(=O)c1cc(Oc2ccc(NC(=O)Nc3ccc(Cl)c(C(F)(F)F)c3)cc2)ccn1 [SORAFENIB],–,–,–,–,88.4,Toxic
C[C@H]1COC2=C1C(=O)C(=O)c1c2ccc2c1CCCC2(C)C [CRYPTOTANSHINONE],6.61,29.2,> 10,5.01,–,–

# Second part, led by results:
IC50 [2] [µM],IC50 [3] [µM],Compound,IC50 [1] [µM],IC50 [4] [µM],inhibition in vivo at 60 mg/kg [5] [%],Activity [6]
> 10,–,CCn1c(-c2cccc(F)c2)nc2cc3nc(-c4cccc(F)c4)n(CC)c3cc21,> 10,–,–,–
1.24,> 20,CCCn1c(-c2cccc(C(F)(F)F)c2)nc2cc3nc(-c4cccc(C(F)(F)F)c4)n(CCC)c3cc21,> 10,> 20,–,–
> 10,–,CCCn1c(-c2scc3ccccc23)nc2cc3nc(-c4scc5ccccc45)n(CCC)c3cc21,> 10,–,–,–
8.11,–,CCCn1c(C2CCCCC2)nc2cc3nc(C4CCCCC4)n(CCC)c3cc21,> 10,–,–,–
> 10,–,CCCn1c(-c2ccc(F)c(C(F)(F)F)c2)nc2cc3nc(-c4ccc(F)c(C(F)(F)F)c4)n(CCC)c3cc21,> 10,–,–,–
2,6.12,CCCn1c(-c2cccc(C)c2)nc2cc3nc(-c4cccc(C)c4)n(CCC)c3cc21,> 10,> 20,–,–
7.21,13.2,CCCn1c(-c2ccccc2)nc2cc3nc(-c4ccccc4)n(CCC)c3cc21,> 10,12.6,–,–
1.5,> 20,CCCn1c(-c2cccc(F)c2)nc2cc3nc(-c4cccc(F)c4)n(CCC)c3cc21,> 10,> 20,–,–
7.85,–,CCCCn1c(-c2cccc(F)c2)nc2cc3nc(-c4cccc(F)c4)n(CCCC)c3cc21,> 10,–,–,–
10.3,–,CCCn1c(-c2ccccc2F)nc2cc3nc(-c4ccccc4F)n(CCC)c3cc21,> 10,–,–,–
10.2,–,CCCn1c(-c2cccc(O)c2)nc2cc3nc(-c4cccc(O)c4)n(CCC)c3cc21,> 10,–,–,–
8.89,–,CCCn1c(-c2cccc(C(=O)OC)c2)nc2cc3nc(-c4cccc(C(=O)OC)c4)n(CCC)c3cc21,> 10,–,–,–
6.7,–,CCCn1c(-c2cccc(C#N)c2)nc2cc3nc(-c4cccc(C#N)c4)n(CCC)c3cc21,> 10,–,–,–
9.5,–,CCCn1c(-c2cccc3ccccc23)nc2cc3nc(-c4cccc5ccccc45)n(CCC)c3cc21,> 10,–,–,–
2.89,17.9,CCCn1c(-c2cccc(Cl)c2)nc2cc3nc(-c4cccc(Cl)c4)n(CCC)c3cc21,> 10,> 20,–,–
